Literature values as cited in paper PMC6854850 (MicrobiologyOpen, 2019).

Target: T1, OmpP (Escherichia coli, UniProt P34210)
T1 sequence (P34210 24-315): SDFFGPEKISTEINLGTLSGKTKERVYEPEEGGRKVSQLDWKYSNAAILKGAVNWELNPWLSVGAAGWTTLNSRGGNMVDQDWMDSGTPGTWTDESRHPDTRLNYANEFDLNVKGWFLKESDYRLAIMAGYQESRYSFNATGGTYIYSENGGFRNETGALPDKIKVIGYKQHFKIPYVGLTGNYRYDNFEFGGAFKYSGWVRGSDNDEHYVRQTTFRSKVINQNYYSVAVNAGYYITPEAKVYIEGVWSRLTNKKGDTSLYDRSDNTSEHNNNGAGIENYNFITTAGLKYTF
Details: ref Hwang et al., 2007

- cleavage of AMP by OmpP, in words: has been shown to cleave
Substance: protamine
